Type in all cases: cell-based
In assay [1] the test system is KRAS G12V mutant human colorectal cancer cell SW620. Put plainly: 3D cell proliferation inhibition assay, SW620. Conditions: SW-620, 168 h, 3D culture, 7 days, CTG. The essentials: (§1)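 Cells were seeded in low-adsorption 96-well plates at 5×10^2 cells/well (MKN1 at 1×10^3) with compounds at final 10000-0.026 nM, 0.2% DMSO, and grown 7 days at 37° C. CTG luminescence gave inhibition relative to DMSO and medium-only controls, and IC50 came from a log-concentration curve fit.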

Assay [2] has as its system KRAS G12D mutant human metastatic pancreatic cancer cell AsPc-1. The experiment in a line: 3D cell proliferation inhibition assay, AsPc-1. The settings on record: ASPC1, 168 h, 3D culture, 7 days, CTG. A digest of the protocol:
as §1

For assay [3], the system named is KRAS G12V mutant human lung squamous carcinoma cell SW900. Put plainly: 3D cell proliferation inhibition assay, SW900. The settings on record: SW900, 168 h, 3D culture, 7 days, CTG. The text has this:
(§2) Test Example 6: 3D Cell Proliferation Inhibition Assay
(§3) The inhibitory effects of the compounds on 3D cell proliferation were investigated on KRAS G12C mutant human non-small cell lung cancer cell NCI-H358, KRAS G12D mutant human lung cancer cell A427, KRAS G12D mutant human gastric cancer cell AGS, KRAS G12D mutant human metastatic pancreatic cancer cell AsPc-1, KRAS G12V mutant human lung squamous carcinoma cell SW900, KRAS G12V mutant human colorectal cancer cell SW620, KRAS G13D mutant human colorectal cancer epithelial cell DLD-1, and KRAS WT human gastric cancer cell MKN1. The specific procedures were as follows:
(§4) 10 μL of each compound solution diluted in a gradient was added to corresponding wells of a 96-well low-adsorption microplate (PerkinElmer), so that the final concentrations of the test compounds in the reaction system were in a range of 10000-0.026 nM. The final concentration of DMSO was 0.2%. Then 90 µL of cells were correspondingly seeded into each well to achieve a cell density of 5×10^2 cells/well (the cell density of SW900 was 5×10^3 cells/well, and the cell density of MKN1 was 1×10^3 cells/well). In addition to test wells for the test compounds, both a DMSO control well and a medium control well were set, with the DMSO control well containing DMSO and cells and the medium well containing only a medium. After the sample loading, the 96-well low-adsorption microplate was incubated in an incubator at 37° C. with […] for 7 days. After 7 days, the microplate was taken out, and 100 μL of CTG reagent (Promega) was added to each well. The plate was incubated at room temperature for 60 m and read on a microplate reader EnVision by the chemiluminescence program. The inhibition rates of the compounds at each concentration were calculated using the formula for the percentage inhibition of cell proliferation: inhibition rate 00=(mean value of DMSO control group−single concentration reading value of compound)/(mean value of DMSO control group−mean value of medium control group)×100. Then non-linear curve fillings for logarithmic concentration-inhibition rate were performed by GraphPad Prism 8, and the IC50 values of the compounds were obtained (Table 6).

For assay [4], the target named is T1, KRAS G12V protein in SW900 cells (Homo sapiens, UniProt P01116, G12V).
T1 construct: endogenous in cells; host or cells: SW900
The experiment in a line: KRAS degradation assay (Western Blot) in SW900 cells. Conditions: 24 h. The essentials: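 Degradation of KRAS measured by Western blot after 24 h exposure to compound (0.03–3000 nM final). Values are DC50 and Dmax.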
In general terms: Immunoblotting shows a protein as a band on a membrane.

In assay [5] the test system is KRAS G12D mutant human lung cancer cell A427. The experiment in a line: 3D cell proliferation inhibition assay, A427. Conditions: A-427, 168 h, 3D culture, 7 days, CTG.
Source text: as §2, §3, §4

The subject of assay [6] is KRAS WT human gastric cancer cell MKN1. Put plainly: 3D cell proliferation inhibition assay, MKN1. The settings on record: MKN-1, 168 h, 3D culture, 7 days, CTG.
Source text: as §2, §3, §4

Assay [7] has as its system KRAS G12D mutant human gastric cancer cell AGS. Put plainly: 3D cell proliferation inhibition assay, AGS. Conditions: 168 h, 3D culture, 7 days, CTG.
Source text: as §2, §3, §4

Assay [8] deals with KRAS G12C mutant human non-small cell lung cancer cell NCI-H358. The experiment in a line: 3D cell proliferation inhibition assay, NCI-H358. The settings on record: NCI-H358, 168 h, 3D culture, 7 days, CTG. The essentials:
as §1

Each structure is given as a SMILES string.

Broadly, the IC50 is the midpoint of a concentration-inhibition curve. A high value points to lower potency. By DC50 is commonly meant the concentration giving 50% degradation. A lower DC50 goes with degradation at low concentration. For orientation: Dmax means the largest share of the target that was removed. Low readings indicate shallow degradation, high ones deep degradation.

T1 sequence (P01116 1-188 isoform P01116-2 G12V): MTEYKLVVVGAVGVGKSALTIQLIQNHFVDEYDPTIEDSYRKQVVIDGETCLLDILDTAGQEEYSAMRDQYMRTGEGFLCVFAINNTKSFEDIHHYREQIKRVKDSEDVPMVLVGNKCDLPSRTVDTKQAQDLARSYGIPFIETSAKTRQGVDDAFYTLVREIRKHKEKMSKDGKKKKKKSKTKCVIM

Regarding `C#Cc1cccc2cc(O)cc(-c3ccc4c(N5CCC[C@@](C)(O)C5)nc(OCC5(CN6CCN(CC7CCC8(CC7)CCN(C(=O)c7ccc(OC)c(N9CCC(=O)NC9=O)c7)CC8)CC6)CC5)nc4c3F)c12` [Example 24, (R)-1-(5-(9-((4-((1-(((7-(8-ethynyl-3-hydroxynaphthalen-1-yl)-8-fluoro-4-(3-hydroxy-3-methylpiperidin-1-yl)quinazolin-2-yl)oxy)methyl)cyclopropyl)methyl)piperazin-1-yl)methyl)-3-azaspiro[5.5]undecane-3-carbonyl)-2-methoxyphenyl)dihydropyrimidine-2,4(1H,3H)-dione], the half-maximal inhibitory concentration (IC50) in assay [1] is 9.33 nM; in assay [2], ≤ 50 nM; in assay [3] it was ≤ 50 nM; in assay [5], 100 to 500 nM; in assay [6], ≤ 50 nM; in assay [7], 50 to 100 nM. This compound had an IC50 in assay [8] of 100 to 500 nM. Moreover, the DC50 in assay [4] is ≤ 50 nM. Moreover, the Dmax in assay [4] is 80 to 100%.
`C#Cc1c(F)ccc2cc(O)cc(-c3ncc4c(N5CCC[C@@](C)(O)C5)nc(OCC5(CN6CCN(CCCC7CCN(C(=O)c8ccc(Cl)c(N9CCC(=O)NC9=O)c8)CC7)CC6)CC5)nc4c3F)c12` [Example 4, (R)-1-(2-chloro-5-(4-(3-(4-((1-(((7-(8-ethynyl-7-fluoro-3-hydroxynaphthalen-1-yl)-8-fluoro-4-(3-hydroxy-3-methylpiperidin-1-yl)pyrido[4,3-d]pyrimidin-2-yl)oxy)methyl)cyclopropyl)methyl)piperazin-1-yl)propyl)piperidine-1-carbonyl)phenyl)dihydropyrimidine-2,4(1H,3H)-dione]: the IC50 in assay [2] was 50 to 100 nM; in assay [3] it was ≤ 50 nM; in assay [5], 100 to 500 nM; in assay [6], ≤ 50 nM; in assay [7], ≤ 50 nM; in assay [8], ≤ 50 nM. The DC50 in assay [4] was ≤ 50 nM. In assay [4], this compound came in with a Dmax of 80 to 100%.
`C#Cc1c(F)ccc2cc(O)cc(-c3ncc4c(N5CCC[C@@](C)(O)C5)nc(OCC5(CN6CCN(CC7CCC8(CC7)CCN(C(=O)c7ccc9c(c7)C(=O)N(C7CCC(=O)NC7=O)C9)CC8)CC6)CC5)nc4c3F)c12` (stereo partly drawn) [Example 35, 3-(6-(9-((4-((1-(((7-(8-ethynyl-7-fluoro-3-hydroxynaphthalen-1-yl)-8-fluoro-4-((R)-3-hydroxy-3-methylpiperidin-1-yl)pyrido[4,3-d]pyrimidin-2-yl)oxy)methyl)cyclopropyl)methyl)piperazin-1-yl)methyl)-3-azaspiro[5.5]undecane-3-carbonyl)-1-oxoisoindolin-2-yl)piperidine-2,6-dione]: the IC50 in assay [2] is ≤ 50 nM; in assay [3] it was 100 to 500 nM; in assay [5] it was 500 to 1000 nM; in assay [6] it was ≤ 50 nM; in assay [7], ≤ 50 nM; in assay [8] it was ≤ 50 nM. Besides, in assay [4], the DC50 is ≤ 50 nM. Also, the Dmax in assay [4] was 80 to 100%.
`C#Cc1c(F)ccc2cc(O)cc(-c3ccc4c(N5CCC[C@@](C)(O)C5)nc(OCC5(CN6CCC(CCOCC7CCN(C(=O)c8ccc(C)c(N9CCC(=O)NC9=O)c8)CC7)CC6)CC5)nc4c3F)c12` [Example 34, (R)-1-(5-(4-((2-(1-((1-(((7-(8-ethynyl-7-fluoro-3-hydroxynaphthalen-1-yl)-8-fluoro-4-(3-hydroxy-3-methylpiperidin-1-yl)quinazolin-2-yl)oxy)methyl)cyclopropyl)methyl)piperidin-4-yl)ethoxy)methyl)piperidine-1-carbonyl)-2-methylphenyl)dihydropyrimidine-2,4(1H,3H)-dione]: the IC50 in assay [2] is ≤ 50 nM; in assay [3] it was ≤ 50 nM; in assay [5], 100 to 500 nM; in assay [6], ≤ 50 nM; in assay [7], ≤ 50 nM; in assay [8], 50 to 100 nM. The DC50 in assay [4] is ≤ 50 nM. In assay [4], this compound registered a maximal degradation (Dmax) of 80 to 100%.

Source of the values: patent US20260167622A1, “PAN-KRAS DEGRADING AGENT, AND PREPARATION METHOD THEREFOR AND USE THEREOF” (LEADINGTAC PHARMACEUTICAL (SHAOXING) CO., LTD., priority 2022, published 2026).
